Data on one molecule can be found in publication PMC5591244, “Novel selective, potent naphthyl TRPM8 antagonists identified through a combined ligand- and structure-based virtual screening approach” (Scientific Reports, 2017).

Like-named read-outs stand apart in the source and are kept apart here.

Holding throughout (format): cell-based
In experiment [1] the target is T1, TRPM8 (Homo sapiens, UniProt Q7Z2W7).
T1 construct: expressed in transfected cells
The experiment is described as follows: Calcium mobilization assay (HTS and dose-response) on HEK-293/hTRPM8 cells. Conditions: for IC50: calcium mobilization. The protocol: All experiments were performed on HEK-293/hTRPM8 cells stably transfected with the human TRPM8 gene, except for site-directed mutagenesis analysis, which was performed on transient transfectants. In details, HEK-293 cells (ATCC, Manassas, Virginia) were transfected with the pcDNA3/hTRPM8 vector by electroporation (300 Volts, 950 µF) then selected with medium containing 0,8 mg/ml G418 for 10–15 days. Then the stable transfected pool underwent two rounds of limiting dilutions, in eight 96 well plates at a cell density of 1 cell/well, in order to obtain pure clones. The best responder clone was selected based on its response to 1 mM menthol in calcium mobilization experiments. HEK-293/hTRPM8 cells were maintained in EMEM (Minimum Essential Medium Eagle with Earl’s salts Balanced Salt Solution, LONZA) supplemented with 2 mM Ultraglutamine1 (Lonza), 1% Penicillin/Streptomycin (LONZA), 10% of Fetal Bovine Serum (Euroclone) and 0,4 mg/mL G418 (InvivoGen).
For calcium mobilization assays, cells were seeded at 10,000 cells/well in 384-well plates coated with poly-D-lysine (MATRIX black/clear bottom #4332-CPL, Thermo Scientific, Waltham, MA, USA) in complete medium.Twenty-four hours after seeding, the plates were washed with Tyrode’s buffer with a Bio-Tek-ELx405 Microplate Washer (Merck Millipore; Billerica, MA, USA), and then 10 µl/well of a solution containing the fluorescent Ca^2+ indicator Fluo-4 NW dye was added. Cells were incubated for 1 h at room temperature before test compounds were added at 3X the concentration with respect to the final wanted concentration to be tested with a FLIPR TETRA system (Molecular Devices, Sunnyvale, CA, USA). Calcium mobilization was monitored over a period of 5 min. A second injection of 10 µl/well of a reference agonist (icilin or Cooling agent 10) at 4X concentration in assay buffer was performed using the FLIPR TETRA system. Of note, for selectivity assays, the following agonists were used: 10 μM AITC (allyl isothiocyanate) for TRPA1; 100 nM Capsaicin for TRPV1; and 20 nM GSK1016790A for TRPV4.
After addition of the agonist, the fluorescence signal was recorded over the next 3 min. The bioactivity exerted by the compounds was expressed as a percentage of inhibition. The percentage scale is defined as follows: 100% inhibition was considered as the relative fluorescence units (RFUs) of the value of the MIN controls in the second injection (antagonist Capsazepine at IC100 = 50 µM) and 0% inhibition was considered as the RFU values of the value of the MAX controls in the second injection (Cooling agent 10 at EC80 = 30 µM). Data from four replicates were analyzed using GraphPad PRISM® software (version 5, GraphPad Software Inc.) to calculate the mean and standard error of the mean, to create sigmoidal concentration-response curves and to calculate IC50 values.
(Calcium assays in cells follow changes in intracellular calcium, usually with a dye or a luminescent sensor.)

The target of experiment [2] is T2, TRPM8 I746A (Homo sapiens, UniProt Q7Z2W7, I746A).
T2 construct: expressed in transfected cells; host or cells: HEK-293, transient (Lipofectamine 2000)
T2 sequence (Q7Z2W7 whole entry I746A): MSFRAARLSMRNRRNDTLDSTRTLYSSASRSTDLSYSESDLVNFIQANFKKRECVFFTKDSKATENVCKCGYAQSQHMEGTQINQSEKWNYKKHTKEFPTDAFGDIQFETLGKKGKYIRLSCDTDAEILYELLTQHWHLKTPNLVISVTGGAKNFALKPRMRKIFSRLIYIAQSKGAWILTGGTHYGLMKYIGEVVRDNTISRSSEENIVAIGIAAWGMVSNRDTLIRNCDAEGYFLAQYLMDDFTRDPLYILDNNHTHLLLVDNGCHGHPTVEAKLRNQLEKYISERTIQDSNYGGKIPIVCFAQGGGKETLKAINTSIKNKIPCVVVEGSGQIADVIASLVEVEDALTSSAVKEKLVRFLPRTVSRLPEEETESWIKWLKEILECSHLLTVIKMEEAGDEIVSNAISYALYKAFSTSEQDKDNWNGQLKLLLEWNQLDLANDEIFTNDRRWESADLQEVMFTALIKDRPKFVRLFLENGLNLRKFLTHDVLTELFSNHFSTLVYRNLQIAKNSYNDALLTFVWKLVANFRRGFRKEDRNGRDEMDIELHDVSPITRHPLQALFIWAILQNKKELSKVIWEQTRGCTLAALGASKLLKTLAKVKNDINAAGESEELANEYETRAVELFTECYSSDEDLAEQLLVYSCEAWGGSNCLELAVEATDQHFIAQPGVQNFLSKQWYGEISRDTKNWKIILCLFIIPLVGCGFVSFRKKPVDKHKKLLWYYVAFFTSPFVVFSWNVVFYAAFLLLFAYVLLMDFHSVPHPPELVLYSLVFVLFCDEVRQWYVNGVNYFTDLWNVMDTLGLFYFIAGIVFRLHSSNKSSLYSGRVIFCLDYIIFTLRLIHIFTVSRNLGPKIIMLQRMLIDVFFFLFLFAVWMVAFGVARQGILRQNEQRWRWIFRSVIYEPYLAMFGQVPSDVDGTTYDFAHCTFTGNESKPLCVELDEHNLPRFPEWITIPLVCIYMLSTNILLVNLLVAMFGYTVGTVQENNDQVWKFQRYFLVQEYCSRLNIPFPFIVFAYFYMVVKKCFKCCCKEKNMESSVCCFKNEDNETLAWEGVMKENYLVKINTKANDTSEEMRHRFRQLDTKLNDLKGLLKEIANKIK
The experiment is described as follows: Calcium mobilization on transiently transfected TRPM8 I746A mutant. The conditions noted are these: icilin at EC80, I746A; read-out: pIC50, inhibition of icilin activation, I746A (converted). The source says: (§1) Single point mutations were introduced in the hTRPM8-coding sequence, and the mutated TRPM8 was cloned as N-terminal c-myc tagged version into the pcDNA3 expression vector. This was done in that way that the single variations could be easily swapped from the myc-tagged expression construct into the non-tagged TRPM8 wild type expression construct.
(§2) The list of the variants is the following: variant 1, t2233g, a2234c (=Y745A); variant 2, a2236g, t2237c (=I746A); variant 3, a2395g, a2396c (=N799A) and variant 4, a2405c (D802A). The cloning project comprised three steps. First of all, a unique XhoI restriction site was inserted by site-directed mutagenesis (SDM) using DNA of the pcDNA3_TRPM8 construct as template. The 0.6 kb DNA fragment between the unique 5′ XhoI (introduced) and 3′ BamHI (already present) restriction sites comprised all positions of the four single point mutations and could be later used for their insertion as well as swapping between myc-tagged and non-tagged TRPM8 versions. In a second step, the c-myc tag sequence was introduced embedded within the TRPM8 coding sequence by PCR primers in two partially overlapping PCRs that were then joined by bridge PCR with the external 5′KpnI and internal 3′EcoRI primers and in the last step the point mutations 1 to 4 were inserted into pcDNA3_c-myc-TRPM8 by exchanging the wild type 5′XhoI-3′BamHI fragment (0.6 kb) with each of the corresponding variation fragment derived from synthetic DNA (provided by GeneArt, ThermoFisher Scientific).The myc-tagged constructs were transiently transfected in HEK-293 cells with Lipofectamine 2000 (Invitrogen) according to the manufacturer’s protocol. The pcDNA vectors containing the wt myc-tagged TRPM8 gene and the empty pcDNA3 (mock) were separately transfected into HEK-293 cells as controls. Cells were transfected and seeded on the same day at 17,500 cells/well in poly-D-lysine-coated 384-well plates (MATRIX #4332-CPL). Twenty-four hours after seeding, the activity of transfected TRPM8 receptors was tested using the calcium mobilization assay as described above. The analysis was performed on the basis of ΔF/F° (normalized MAX-MIN), where ΔF is the MAX between time points 117 and 182 minus the MIN between time points TP114 and TP116, and F° is the basal signal at time point TP0. The obtained data from at least four wells (as replicates) were analyzed with GraphPad PRISM® software (version 5, GraphPad Software Inc.) to calculate the mean and standard error of the mean[58], to create sigmoidal concentration-response curves and to calculate IC50 values.

Experiment [3] has as its target T3, TRPM8 N799A (Homo sapiens, UniProt Q7Z2W7, N799A).
T3 construct: expressed in transfected cells; host or cells: HEK-293, transient (Lipofectamine 2000)
Description: Calcium mobilization on transiently transfected TRPM8 N799A mutant. Conditions: Cooling agent 10 at EC80, N799A; read-out: pIC50, inhibition of Cooling agent 10 activation, N799A (converted).
From the text: as §1, §2

Experiment [4] has as its system TRPV3. Description: Selectivity, TRPV3 as named in the discussion.

T1 sequence (Q7Z2W7 whole entry): as the sequence (Q7Z2W7 whole entry I746A) above, with A746I counted along it
T3 sequence (Q7Z2W7 whole entry N799A): as the sequence (Q7Z2W7 whole entry I746A) above, with A746I, N799A counted along it

In general, pIC50 refers to the IC50 on a negative log10 scale, so that one unit is a factor of ten. Turning to `Clc1c(OCCNCc2ccco2)ccc2ccccc12` [Compound 1], the pIC50 in experiment [1] (HTS campaign activity determination, Fig. 4) was found to be 7.15. Also, the IC50 in experiment [1] (agonist Cooling agent 10, read-out: pIC50 with Cooling agent 10 (converted)) was 41.7 nM; in experiment [1] (agonist icilin, read-out: pIC50 with icilin (converted)) it was 58.9 nM; in experiment [2], 20 nM; in experiment [3], 10 nM. In addition, the “Effect on inhibition of TRPV3” value in experiment [4] is “didn’t have any effect”.
